Laboratory results: patent publication US8324261B2, “Histidine derivatives” (Nippon Zoki Pharmaceutical Co., Ltd., priority 2007, dated 2012)
Like-named read-outs stand apart in the source and are kept apart here.

What was measured:
[1] = system: SART stressed mouse; assay: Test for analgesic effect (1): SART stressed mouse, modified Randall-Selitto tail pressure method; format: in vivo, mice
[2] = system: mice; assay: Single dose toxicity test by administration to mice; format: in vivo; settings: intraperitoneal 250, 500 and 1,000 mg/kg; 14 days
Protocol: A single dose toxicity test by intraperitoneal administration of the carboxylic acid type of the compounds of the present invention to mice was carried out. Male mice of ddY strain of four weeks age were made into groups of five mice so as to make mean body weight in each group nearly the same. Carboxylic acid type A as a test substance was intraperitoneally administered at the doses of 250 mg/kg, 500 mg/kg and 1,000 mg/kg.

[3] = system: Chung model rat; assay: Test for analgesic effect (2)/(3): Chung model rat, mechanical allodynia by von Frey filament; format: in vivo, rats
Protocol: A test for analgesic effect was conducted using a Chung model rat which is a neuropathic pain model. As to the test animal, male rats of Wistar strain of nine weeks age were used and model rats were prepared in accordance with the method of Kim and Chung (Pain, vol. 50, pages 355 to 363, 1992). Thus, under anesthetization with pentobarbital (40 mg/kg, intraperitoneal administration), rat L5 spinal nerve was exposed and L5 dorsal root ganglion periphery side was strongly ligated using 5-0 silk yarn. The animals were placed in a transparent acrylate cage whose bottom was made of wire net, a 50% reaction threshold value was calculated by an up-down method using a von Frey filament (manufactured by North Coast Medical Inc.) according to the methods of Chaplan, et al. (J. Neurosci. Method, vol. 53, pages 55 to 63, 1994) and by Lee, et al. (J. Neurophysiol., vol. 81, pages 2226 to 2233, 1999) and measurement of allodynia was conducted. Before injury of spinal nerve, the 50% reaction threshold value was measured twice and the animals where the threshold value was outside the standard were excluded from the operation for spinal nerve injury. […] Those test animals were made into groups of seven animals so that the mean value of 50% reaction threshold after 28 days from the nerve injury as an index became nearly the same in each group.
The carboxylic acid type of the compounds of the present invention as a test substance was intraperitoneally administered in a single dose while, a 0.5% CMC-Na/physiological saline solution was administered similarly to a nerve injury control group. After 30 minutes from the administration of the test substance, allodynia was measured to calculate a 50% reaction threshold value. With regard to a significance test, Paired t-test was conducted for comparison between before and after the nerve injury and Dunnett's multiple comparison test was used for comparison among multiple groups of the nerve injury control group and the test substance administration group.
According to the same manner as in the above Test for Analgesic Effect (2), each of Compound 12 of the present invention (3 mg/kg, 10 mg/kg) and Carboxylic acid substance A of the compound of the present invention (10 mg/kg) was orally administered in a single dose as the test substance to Chung model rats. Allodynia after 0, 15, 30, 60 and 120 minutes from the administration was measured for each of the test substance administration group and the nerve injury control group whereupon a 50% reaction threshold value was calculated.

[4] = system: rats; assay: Formalin pain test for rats, second phase; format: in vivo; settings: oral administration of 100 mg/kg
[5] = Test of kinetics in blood of rats; format: in vivo; settings: rat, in vivo, po, 10 mg/kg
Protocol: Each of the compound of the present invention and the carboxylic acid type A thereof was dissolved in DMSO, diluted with water. A sample solution (1% DMSO solution) made into 2 mg/mL was orally administered in a single dose to the fasted Wistar strain SPF male rats of seven weeks age using a stomach tube (10 mg/5 mL/kg). At the stages of 0.25, 0.5, 1, 2, 4 and 8 hour(s) after the administration, about 150 μL of the blood was collected from tail vein using a capillary to which heparin was added and said capillary was centrifuged to collect the plasma. Protein was removed from the plasma sample and the supernatant liquid was diluted to prepare each sample solution for the measurement.

[6] = system: rats; assay: Hyperalgesia in osteoarthritis model induced by monoiodoacetic acid into joints of rats; format: in vivo; settings: oral administration of 1 mg/kg
[7] = system: mice; assay: Test for analgesic effect (4): acetic acid writhing test; format: in vivo; settings: oral single dose; 0.7% acetic acid i.p. 25 minutes after; writhing numbers during 10 minutes
Protocol: The compounds of the present invention or the carboxylic acid type thereof were orally administered to mice and a test for an analgesic effect was carried out by means of an acetic acid writhing test. As to the test animals, male mice of ddY strain of four weeks age were subjected to a preliminary breeding and they were used where one group comprised ten mice. Each of the compound of the present invention or the carboxylic acid type thereof as a test substance was orally administered in a single dose while, to a control group, distilled water (water for injection) was administered similarly. After 25 minutes from the administration of the test substance, a 0.7% acetic acid/physiological saline was intraperitoneally administered at the dose of 10 mL/kg. From 5 minutes thereafter, writhing numbers during 10 minutes were counted and a suppressive rate for each mouse was calculated according to the following formula. Suppressive Rate (%)=[(Mean writhing numbers of the control group)−(Writhing numbers of each mouse)]÷[Mean writhing numbers of the control group]×100

[8] = set-up: species or system cynomolgus monkeys; settings: cynomolgus monkey, in vivo, 30 mg/kg
Protocol: Each of the compound of the present invention and Carboxylic acid type A thereof dissolved or suspended in a hydrochloric acid solution was diluted with water. […] At the stages of before the administration and of 0.25, 0.5, 1, 2, 4, 8 and 24 hour(s) after the administration, the blood was collected from femoral vein using a syringe to which heparin was added followed by subjecting to centrifugation to collect the plasma. Collection of the blood was conducted for three times in total where one collection was done with each blank term of six days for each test substance. Concentration of Carboxylic acid type A in each of the collected plasma samples was quantified by an LC-MS and Cmax (maximum drug concentration in plasma) and AUC (area under blood concentration time curve; 0 to ∞ hour(s)) of the compound of the present invention and Carboxylic acid type A thereof were calculated.

[9] = intraperitoneally administered 100 μg/kg to mice

## C=CC(=O)N[C@@H](Cc1cncn1C)C(=O)O [Carboxylic acid type A, N^α-acryloyl-N^π-methyl-L-histidine]
[1]; 25 ng per mouse into the lateral ventricle, 30 minutes after administration, pain threshold of test group divided by that of SART control group, 1.0 = no effect
  Analgesic coefficient: 1.33
[1]; [9]
  Analgesic coefficient: 1.24
  pain threshold value: 97.8 g
[1]; oral administration in mice, dose of 3 and 10 mg/kg, peak after 30 minutes
  analgesic action: significant analgesic action
[1]; oral administration in mice, peak after 30 minutes
  ED50 value determined from the improving rate at peak of action: 2.7 mg/kg
[2]
  death: no death case
[3]; intraperitoneal single dose
  threshold as compared with the nerve injury control group: significant increase in the threshold
[3]; intraperitoneally 100 μg/kg single dose, 30 minutes after administration
  50% reaction threshold value: 9.60 g
[3]; oral administration, dose of 10 mg/kg, peak after 30 minutes
  anti-allodynia action to mechanical allodynia: significant anti-allodynia action
[3]; oral administration, peak after 30 minutes
  ED50 value determined from the improving rate at the peak of the action: 2.4 mg/kg
[3]; oral single dose (Compound 12: 3 and 10 mg/kg; Carboxylic acid type A: 10 mg/kg), 15, 30 and 60 minutes after administration, FIG. 1
  anti-allodynia action as compared with the nerve injury control group: significant anti-allodynia action
[4]
  analgesic action against pain reaction in the second phase: significant analgesic action
[5]
  AUC: 1339.4 ng·h/mL
  Cmax: 372.5 ng/mL
[6]
  analgesic effect on hyperalgesia: significant analgesic effect
[7]
  Suppressive Rate (%): 33.1%
[8]
  AUC: 2356.9 ng·h/mL
  Cmax: 410.8 ng/mL
